Source: patent US10807969B2, “Meglumine salt formulations of 1-(5,6-dichloro-1h-benzo[d]imidazol-2-yl)-1h-pyrazole-4-carboxylic acid” (Janssen Pharmaceutica NV, priority 2011, dated 2020)

Assay: Moisture uptake (adsorption/desorption vs relative humidity)
Format: physicochemical
Conditions: for Desorption (90-0% RH): moisture loss; for Adsorption (40-90% RH): moisture uptake
Source text: The thermal properties, crystalline nature, apparent purity and moisture uptake of a 6.0 g batch of the free acid of compound (1) are summarized in Table 1.
Two broad endothermic peaks of the potassium salt of compound (1) were seen by DSC that can be associated with a dehydration event and melt/decomposition, respectively (Table 2).

Desorption (90-0% RH) | Adsorption (40-90% RH) | Hygroscopicity (salt prepared by re-slurry methodology) | SMILES
−0.96% | +0.59% |  | O=C(O)c1cnn(-c2nc3cc(Cl)c(Cl)cc3[nH]2)c1 [free acid of compound (1), 1-(5,6-Dichloro-1H-benzoimidazol-2-yl)-1H-pyrazole-4-carboxylic acid]
−0.89% | +0.53% | non-hygroscopic | O=C([O-])c1cnn(-c2nc3cc(Cl)c(Cl)cc3[nH]2)c1.[K+] [potassium salt of compound (1), potassium salt of 1-(5,6-dichloro-1H-benzoimidazol-2-yl)-1H-pyrazole-4-carboxylic acid]
